From patent EP2522331A1, “Use of resveratrol and niacinamide” (DSM IP Assets B.V., priority 2011, dated 2012) come the findings set out here.

Structures are written as SMILES. Where two headings read alike, the source gives them in different places.

For the test, the system named is MYO5A. Kind of test: Gene modulation (RT-qPCR, PCR array mQPA H-Melanocyte-64) in normal human epidermal melanocytes (NHEM). In kind it is cell-based. The following applies: NHEM cells. How it is done:
Normal human epidermal melanocytes were cultivated for 24 hours. Culture medium was then removed and replaced by fresh medium containing the active ingredient to be evaluated or exempt of it (control). Cells were cultivated for additional 72 hours. All experimental conditions were performed in triplicate.
At the end of the cultivation, the cells were harvested and washed with phosphate buffered saline (PBS) solution and immediately frozen at -80 °C. The expression of selected markers was analyzed using RT-qPCR method on mRNA extracted from cells layer for each treatment condition. The differential expression analysis was performed by PCR arrays of the screening format "mQPA H-Melanocyte-64", which focuses on 64 genes selected for their importance in pigmentation and melanocyte biology.
Total RNA was extracted from each sample using TRI-Reagent®. The amount and quality of the RNA was evaluated using a lab-on-a-chip Bioanalyzer (Agilent technologies). Potential contaminants traces of DNA were removed […] The incorporation of fluorescence in amplified DNA was measured continuously during the PCR cycles. […] The value selected for RE calculations is the "output point" (Ct) of the fluorescence curve. For a given marker, the highest is the cycle number; the lowest, is the mRNA quantity. The RE value is expressed in arbitrary units (AU) according to the equation: (((1)/(2)))^NC x 10^6 [formula] Where NC is the number of cycles.
The analysis of the gene expression of selected melanogenesis genes in NEHM cells treated with resveratrol (5 micrograms/ml) on one side, and Niaciamide (0.5 mg/ml) on the other side, has been compared with the gene expression of the same selected melanogenesis genes in NEHM cells treated with a combination of resveratrol (5 micrograms/ml) and Niaciamide (0.5 mg/ml).

The mark [1] stands for this setting: 72 hours treatment, resveratrol 5 µg/ml, niacinamide 0.5 mg/ml, combination 5 µg/ml + 0.5 mg/ml, read-out: MYO5A (expression ratio compared to control).
Where [2] appears, read: 72 hours, resveratrol 5 micrograms/ml alone or niacinamide 0.5 mg/ml alone, read-out: down-regulation of MYO5A (signed change when compared to untreated cells).

As to `NC(=O)c1cccnc1` [Niacinamide, 3-pyridinecarboxamide], the inhibition at 500 µg/mL under setting [1] is 15% and the inhibition at 500 µg/mL under setting [2] was determined as 15%.

As to `Oc1ccc(C=Cc2cc(O)cc(O)c2)cc1` [Resveratrol, 3,4',5 trihydroxystilbene], the inhibition at 5 µg/mL worked out at 25% under setting [1] and 25% under setting [2].
